Test results reported in patent US11261186B2, “Biaryl derivative as GPR120 agonist” (LG CHEM, LTD., priority 2014, dated 2022).

Each compound was assayed against T1, hGPR120 (Homo sapiens, UniProt Q5NUL3) (assay: Measurement of Activity of GPR120 Agonist (Cell-Based Assay), Calcium 5 dye fluorescence). Conditions: CHO-K1 cells expressing Ga16 and hGPR120.
T1 construct: expressed in transfected cells; host or cells: CHO-K1
T1 sequence (Q5NUL3 1-361): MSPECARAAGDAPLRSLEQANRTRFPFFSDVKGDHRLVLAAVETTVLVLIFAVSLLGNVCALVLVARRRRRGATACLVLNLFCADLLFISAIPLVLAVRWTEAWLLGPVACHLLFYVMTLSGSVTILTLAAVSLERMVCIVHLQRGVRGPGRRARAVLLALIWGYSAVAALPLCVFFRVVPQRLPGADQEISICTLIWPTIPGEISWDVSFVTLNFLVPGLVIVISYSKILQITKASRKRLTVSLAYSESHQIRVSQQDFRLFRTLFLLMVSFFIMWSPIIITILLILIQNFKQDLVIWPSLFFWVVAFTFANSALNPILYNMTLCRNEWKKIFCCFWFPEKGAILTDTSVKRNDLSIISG
Outline: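 CHO-K1 cells co-expressing Gα16 and hGPR120 were seeded, cultured 18 h at 37 °C, then loaded 1 h with Calcium 5 dye. Serially diluted agonists (final 0.5% DMSO) were added and fluorescence read at Ex 485/Em 525 nm, expressed as percent relative to 1% DMSO-only wells.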

Compound	EC50 [nM]
Cc1ccc(-c2cc(F)c(OCCCC(=O)O)c(F)c2)cc1OCC1CC1 [Example 532, 4-(3′-cyclopropylmethoxy-3,5-difluoro-4′-methyl-biphenyl-4-yloxy)-butyric acid]	< 200
O=C(O)CCCOc1c(F)cc(-c2ccc(Cl)c(OC3CCC3)n2)cc1F [Example 533, 4-[4-(5-chloro-6-cyclobutoxy-pyridin-2-yl)-2,6-difluoro-phenoxy]-butyric acid]	200 to 2000
O=C(O)CCCOc1c(F)cc(-c2ccc(Cl)c(OCC3CC3)c2)cc1F [Example 534, 4-(4′-chloro-3′-cyclopropylmethoxy-3,5-difluoro-biphenyl-4-yloxy)-butyric acid]	200 to 2000
O=C(O)CCCOc1ccc(-c2cc(F)cc(OC3CCC3)c2)cc1F [Example 536, 4-(5′-cyclobutoxy-3,3′-difluoro-biphenyl-4-yloxy)-butyric acid]	< 200
O=C(O)CCCCc1ccc(-c2cccc(OC3CCC3)n2)cc1F [Example 537, 5-[4-(6-cyclobutoxy-pyridin-2-yl)-2-fluoro-phenyl]-pentanoic acid]	< 200
O=C(O)CCCOc1ccc(-c2cccc(OC3CCC3)n2)cc1F [Example 538, 4-[4-(6-cyclobutoxy-pyridin-2-yl)-2-fluoro-phenoxy]-butyric acid]	< 200
O=C(O)CCCOc1ccc(-c2cccc(OCC3CCC3)n2)cc1F [Example 539, 4-[4-(6-cyclobutylmethoxy-pyridin-2-yl)-2-fluoro-phenoxy]-butyric acid]	200 to 2000
O=C(O)CCCOc1ccc(-c2cccc(SC3CCC3)n2)cc1F [Example 540, 4-[4-(6-cyclobutylsulfanyl-pyridin-2-yl)-2-fluoro-phenoxy]-butyric acid]	< 200
O=C(O)C1CC1COc1c(F)cc(-c2cc(F)cc(OC3CCC3)c2)cc1F (centres unmarked) [Example 541, 2-(3′-cyclobutoxy-3,5,5′-trifluoro-biphenyl-4-yloxymethyl)-cyclopropanecarboxylic acid]	< 200
Cc1cc(OC2CCC2)nc(-c2cc(F)c(OCC3CC3C(=O)O)c(F)c2)n1 (centres unmarked) [Example 542, 2-[4-(4-cyclobutoxy-6-methyl-pyrimidin-2-yl)-2,6-difluoro-phenoxymethyl]-cyclopropanecarboxylic acid]	< 200
O=C(O)C1CC1COc1c(F)cc(-c2nccc(OC3CCC3)n2)cc1F (centres unmarked) [Example 543, 2-[4-(4-cyclobutoxy-pyrimidin-2-yl)-2,6-difluoro-phenoxymethyl]-cyclopropanecarboxylic acid]	< 200
O=C(O)C1CC1COc1c(F)cc(-c2cccc(OC3CCC3)n2)cc1F (centres unmarked) [Example 544, 2-[4-(6-cyclobutoxy-pyridin-2-yl)-2,6-difluoro-phenoxymethyl]-cyclopropanecarboxylic acid]	< 200
O=C(O)C1CC1COc1c(F)cc(-c2nccc(OCC3CC3)n2)cc1F (centres unmarked) [Example 545, 2-[4-(4-cyclopropylmethoxy-pyrimidin-2-yl)-2,6-difluoro-phenoxymethyl]-cyclopropanecarboxylic acid]	200 to 2000
Cc1cc(OCC2CC2)nc(-c2cc(F)c(OCC3CC3C(=O)O)c(F)c2)n1 (centres unmarked) [Example 546, 2-[4-(4-cyclopropylmethoxy-6-methyl-pyrimidin-2-yl)-2,6-difluoro-phenoxymethyl]-cyclopropanecarboxylic acid]	200 to 2000
O=C(O)C1CC1COc1c(F)cc(-c2cncc(OCC3CC3)n2)cc1F (centres unmarked) [Example 547, 2-[4-(6-cyclopropylmethoxy-pyrazin-2-yl)-2,6-difluoro-phenoxymethyl]-cyclopropanecarboxylic acid]	200 to 2000
Cc1cc(OC2CCC2)nc(-c2cc(F)c(OCC3CC3C(=O)O)c(F)c2)c1 (centres unmarked) [Example 548, 2-[4-(6-cyclobutoxy-4-methyl-pyridin-2-yl)-2,6-difluoro-phenoxymethyl]-cyclopropanecarboxylic acid]	< 200
O=C(O)C1CC1COc1c(F)cc(-c2cccc(OCC3CC3)n2)cc1F (centres unmarked) [Example 549, 2-[4-(6-cyclopropylmethoxy-pyridin-2-yl)-2,6-difluoro-phenoxymethyl]-cyclopropanecarboxylic acid]	< 200
